Results on 14 molecules are retold here after ChEMBL document CHEMBL1131525, “Synthesis and anti-inflammatory activity of chalcone derivatives” (Bioorg Med Chem Lett, 1998).

In test [1] the target is T1, Polyunsaturated fatty acid 5-lipoxygenase (Homo sapiens, UniProt P09917).
T1 sequence (P09917 whole entry): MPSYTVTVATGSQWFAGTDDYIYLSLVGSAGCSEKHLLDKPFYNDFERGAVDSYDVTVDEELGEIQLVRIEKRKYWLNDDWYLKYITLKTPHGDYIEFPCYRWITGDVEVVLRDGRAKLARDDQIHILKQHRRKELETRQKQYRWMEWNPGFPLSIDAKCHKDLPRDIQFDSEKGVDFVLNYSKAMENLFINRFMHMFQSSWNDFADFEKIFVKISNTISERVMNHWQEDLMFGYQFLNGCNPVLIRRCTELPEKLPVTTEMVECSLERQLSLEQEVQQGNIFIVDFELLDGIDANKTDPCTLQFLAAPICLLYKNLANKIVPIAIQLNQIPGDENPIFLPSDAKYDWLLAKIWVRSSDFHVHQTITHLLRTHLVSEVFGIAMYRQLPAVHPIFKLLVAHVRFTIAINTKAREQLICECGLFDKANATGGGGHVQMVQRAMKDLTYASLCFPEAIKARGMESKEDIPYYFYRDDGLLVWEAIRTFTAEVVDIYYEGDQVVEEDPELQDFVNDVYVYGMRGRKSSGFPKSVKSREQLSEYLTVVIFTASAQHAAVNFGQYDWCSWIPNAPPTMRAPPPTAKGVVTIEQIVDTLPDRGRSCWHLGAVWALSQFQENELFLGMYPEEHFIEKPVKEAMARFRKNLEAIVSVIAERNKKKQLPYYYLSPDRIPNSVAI
Nature of the test: (§1) Inhibitory concentration required against 5-lipoxygenase activity in cytosolic fractions of human neutrophils.

Test [2] deals with Mus musculus. Nature of the test: In vivo inhibition of compound required to inhibit PGE-2 levels in zymosan treated mouse air pouch at a dose of 100 nmol/pouch. In kind it is functional.
Test [3] is filed under the species Homo sapiens. Nature of the test: (§2) […] required for elastase release in stimulated human neutrophils. Format: functional.
Test [4] has as its system Mus musculus. Nature of the test: In vivo inhibition of compound required for migration of neutrophils into the mouse pouch at the dose of 100 nmol/pouch. Format: functional.
For test [5], the target named is T2, Prostaglandin G/H synthase 2 (Homo sapiens) (UniProt P35354).
T2 sequence (whole entry): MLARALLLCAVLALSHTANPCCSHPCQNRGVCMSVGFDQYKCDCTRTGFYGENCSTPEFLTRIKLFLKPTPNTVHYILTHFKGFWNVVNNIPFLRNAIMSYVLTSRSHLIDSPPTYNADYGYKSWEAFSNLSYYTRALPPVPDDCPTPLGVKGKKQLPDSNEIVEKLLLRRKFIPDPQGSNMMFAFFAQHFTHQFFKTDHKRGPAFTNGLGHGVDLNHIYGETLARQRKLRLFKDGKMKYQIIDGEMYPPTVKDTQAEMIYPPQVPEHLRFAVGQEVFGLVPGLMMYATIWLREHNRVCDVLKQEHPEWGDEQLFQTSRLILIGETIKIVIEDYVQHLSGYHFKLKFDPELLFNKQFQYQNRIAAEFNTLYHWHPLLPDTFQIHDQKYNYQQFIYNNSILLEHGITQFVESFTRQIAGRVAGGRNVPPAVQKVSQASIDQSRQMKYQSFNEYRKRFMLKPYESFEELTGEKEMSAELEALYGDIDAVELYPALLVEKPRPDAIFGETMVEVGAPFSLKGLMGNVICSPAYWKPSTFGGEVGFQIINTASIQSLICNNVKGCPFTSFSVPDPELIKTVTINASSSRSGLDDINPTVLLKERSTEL
Nature of the test: Inhibition of COX-2 activity in intact human monocytes. Format: cell-based. Also noted: concentration or dose not given beside the values. The following applies: concentration not given here.

Test [6] is filed under the species Homo sapiens. Nature of the test: (§3) Inhibitory concentration required for LTB4 synthesis in stimulated human neutrophils. Format: functional, organism-based.
For test [7], the system named is Mus musculus. Nature of the test: In vivo inhibition of compound required to inhibit LTB4 levels in zymosan treated mouse air pouch at a dose of 100 nmol/pouch. Format: functional.
The test system of test [8] is Mus musculus. Nature of the test: In vivo inhibition of compound required to inhibit TNF-alpha levels in zymosan treated mouse air pouch at a dose of 100 nmol/pouch. In kind it is functional.
The species named for test [9] is Homo sapiens. Described as §3. Format: functional.
Test [10] addresses T3, Polyunsaturated fatty acid 5-lipoxygenase (Homo sapiens) (UniProt P09917).
T3 sequence (whole entry): T1 sequence (P09917 whole entry)
Described as §1. Particulars: concentration not given here.

The species named for test [11] is Homo sapiens. Described as §2. Format: functional. More on the design: concentration or dose not given beside the values.
The target of test [12] is T1, Polyunsaturated fatty acid 5-lipoxygenase. Nature of the test: Inhibitory concentration required against 5-lipoxygenase activity in intact cells of human neutrophils. Format: cell-based.
Test [13] is described as follows: Inhibitory concentration required for scavenging of superoxide anion generated by hypoxanthine / xanthine oxidase system. In kind it is functional.
Test [14] is filed under the species Homo sapiens. Nature of the test: Inhibitory concentration required for scavenging of superoxide anion generated by stimulated human neutrophils. Format: functional.

On to `O=C(/C=C/c1ccco1)c1ccc(Cl)c(Cl)c1`, for which the IC50 in [1] turned out to be 4.1 µM; in the test filed under Homo sapiens [3], 5.4 µM; in the test listed under Homo sapiens [6], 4.8 µM. The Inhibition in the test with Mus musculus [2] worked out at 71%; with Mus musculus [4], 47.3%; in the test on Mus musculus [7], 0%; in the test with Mus musculus [8] it was 0%. In test [5], the inhibition turned out to be 0%.
In the case of `COc1cccc(/C=C/C(=O)c2ccc(Br)cc2)c1OC`, the values for the IC50 (in test [1]; in the test listed under Homo sapiens [3]; in the test filed under Homo sapiens [6]) were 6.1 µM, 2.2 µM and 6.7 µM, respectively. The Inhibition was determined as 62% in the test on Mus musculus [2], 35.7% in the test on Mus musculus [4], 40% in the test with Mus musculus [7] and 44% in the test with Mus musculus [8]. In addition, the inhibition in test [5] was determined as 0%.
For the molecule `O=C(/C=C/c1cc2ccccc2nc1Cl)c1ccc(C(F)(F)F)cc1`, the Inhibition in the test with Mus musculus [2] amounted to 46.5%; in the test filed under Homo sapiens [9], 36.9%; in the test with Mus musculus [4], 39.7%; in the test on Mus musculus [7] it was 13%; in the test on Mus musculus [8], 24.5%; in the test filed under Homo sapiens [11], 0%. Further, the figures for the inhibition in [5] and in test [10] were 35.6% and 32.9%, respectively.
`CCn1c(=O)ccc2cc(COc3cc(F)cc(C4(OC)CCOCC4)c3)ccc21`: the half-inhibitory concentration (IC50) in test [1] amounted to 0.09 µM; in test [12], 60 nM.
Regarding `COc1cc2cc(/C=C/C(=O)c3ccc(C)cc3)c(Cl)nc2cc1OC`, the Inhibition was 59.5% in the test on Mus musculus [2]; 38.6% in the test with Mus musculus [4]; 15.2% in the test with Mus musculus [7]; 11.2% with Mus musculus [8]; 40.7% in the test filed under Homo sapiens [11]. Further, the values for the inhibition in [5] and in test [10] were 0% and 61%, respectively. Also, the IC50 in the test listed under Homo sapiens [6] came to 9.8 µM.
On to `COc1cc(/C=C/C(=O)c2cc(OC)c(OC)c(OC)c2)cc(OC)c1OC`, for which the Inhibition in the test with Mus musculus [2] is given as 0%; in the test listed under Homo sapiens [9], 21.1%; in the test on Mus musculus [4] it was 35%; in the test on Mus musculus [7], 27.5%; with Mus musculus [8], 25.7%; in the test listed under Homo sapiens [11] it was 0%. The inhibition in test [5] worked out at 0%; in test [10], 14.6%.
In the case of `Cc1coc(C)c1C(=O)/C=C/c1cc2ccccc2nc1Cl`, the results for the IC50 (in test [1]; in the test listed under Homo sapiens [3]) were 3.5 µM and 8.4 µM, respectively. The Inhibition in the test on Mus musculus [2] is on record as 56.8%; in the test listed under Homo sapiens [9], 53.5%; in the test with Mus musculus [4], 47.1%; with Mus musculus [7], 19.5%; in the test on Mus musculus [8], 34.4%. In addition, in test [5], the inhibition is 0%.
For the molecule `COc1ccc(C(=O)/C=C/c2ccc(N(C)C)cc2)cc1OC`, the IC50 in test [13] amounted to 300 nM; in the test filed under Homo sapiens [14] it was 100 nM. In addition, the Inhibition in the test on Mus musculus [2] stood at 75.8%; in the test listed under Homo sapiens [9], 0%; in the test on Mus musculus [4], 20.6%; in the test on Mus musculus [7], 41.1%; with Mus musculus [8], 64.2%; in the test listed under Homo sapiens [11], 0%. In addition, the inhibition turned out to be 0% in [5] and 37.9% in test [10].
On to `O=C(/C=C/c1cc2ccccc2nc1Cl)c1cccnc1`, for which the Inhibition with Mus musculus [2] came to 69.5%; in the test listed under Homo sapiens [9] it was 26.4%; in the test with Mus musculus [4], 53%; in the test with Mus musculus [7], 30.7%; with Mus musculus [8], 12.1%; in the test filed under Homo sapiens [11], 0%. For the same molecule, the inhibition was 46.6% in test [5] and 30.2% in test [10].
For `COc1cc2cc(/C=C/C(=O)c3ccccc3)c(Cl)nc2cc1OC`, the Inhibition was found to be 29.9% in the test with Mus musculus [2]; 42.2% in the test filed under Homo sapiens [9]; 0% with Mus musculus [4]; 0% in the test on Mus musculus [7]; 35.7% in the test on Mus musculus [8]; 0% in the test listed under Homo sapiens [11]. In addition, the inhibition in test [5] was found to be 0%; in test [10] it was 42%.
As for `COc1ccc(C(=O)/C=C/c2ccc(C(F)(F)F)cc2)c(OC)c1`, the Inhibition in the test on Mus musculus [2] is given as 25.5%; in the test listed under Homo sapiens [9], 35.4%; in the test with Mus musculus [4], 0%; in the test with Mus musculus [7] it was 45.9%; with Mus musculus [8] it was 0%; in the test listed under Homo sapiens [11], 0%. Besides, the inhibition is 0% in test [5] and 21.7% in [10].
For the molecule `COc1ccc(C(=O)/C=C/c2cc3ccccc3nc2Cl)c(OC)c1`, the Inhibition with Mus musculus [2] is on record as 36.2%; in the test filed under Homo sapiens [9], 10.7%; in the test on Mus musculus [4], 0%; in the test with Mus musculus [7] it was 11.1%; with Mus musculus [8] it was 52.1%; in the test listed under Homo sapiens [11], 0%. For the same molecule, the inhibition in test [5] was determined as 41.8%; in test [10], 27.6%.
With `COc1ccc(C(=O)/C=C/c2cc3ccccc3nc2Cl)cc1`, the Inhibition in the test with Mus musculus [2] stood at 23.2%; in the test listed under Homo sapiens [9], 30.2%; in the test on Mus musculus [4], 20.4%; in the test with Mus musculus [7] it was 20.9%; in the test on Mus musculus [8], 0%; in the test listed under Homo sapiens [11], 0%. For the same molecule, the inhibition in test [5] is 30%; in test [10], 42.3%.
With `O=C(/C=C/c1cc2ccccc2nc1Cl)c1ccc(F)cc1`, the 50% inhibitory concentration (IC50) in test [1] was 3.9 µM; in the test listed under Homo sapiens [3], 3 µM; in the test listed under Homo sapiens [6] it was 6.2 µM. Besides, the Inhibition is recorded as 58.3% in the test with Mus musculus [2], 36.6% with Mus musculus [4], 18.5% in the test on Mus musculus [7] and 0% in the test on Mus musculus [8]. In addition, in [5], the inhibition came out at 36.3%.
